Results taken from ChEMBL document CHEMBL1159273, “[Cytotoxicity of aspidospermane indole alkaloids with a modified tryptamine chain]” (J Nat Prod, 1995).

System: L1210
Experiment: Cytotoxicity against mouse L1210 cells after 48 hrs by MTT method
Assay type: functional, cell-based
Conditions: L1210, 48 h

SMILES	IC50 [µM]
CC[C@]12CCCN3C[C@@H](Br)[C@@]4(c5ccccc5N[C@H]4[C@@](Cl)(C(=O)OC)C1)[C@@H]32	46.8
CC[C@]12CCCN3[C@@H](OC)C[C@]4(C(=Nc5ccccc54)[C@@](Cl)(C(=O)OC)C1)[C@@H]32	3.1
CC[C@]12CCCN3CC[C@@]4(c5ccccc5N5[C@H]4[C@]5(C(=O)OC)C1)[C@@H]32	156
CC[C@]12CCCN3C[C@@H](Br)[C@@]4(c5ccccc5N5[C@H]4[C@]5(C(=O)OC)C1)[C@@H]32	141
CC[C@]12CCC[N+]3([O-])CC[C@]4(C(=Nc5ccccc54)[C@@](Cl)(C(=O)OC)C1)[C@H]23 (some centres not stated)	27.4
CC[C@]12CCC[N+]3([O-])C[C@@H](Br)[C@]4(C(=Nc5ccccc54)[C@@](Cl)(C(=O)OC)C1)[C@H]23 (some centres not stated)	14.1
COc1cccc2c1C(=O)c1c(O)c3c(c(O)c1C2=O)C[C@@](O)(C(=O)CO)C[C@@H]3O[C@H]1C[C@H](N)[C@H](O)[C@H](C)O1 [DOXORUBICIN]	0.03
